{
  "source": "the supplement of paper PMC6045584",
  "key": {"[1]": {"compound": "T1, CCCCCCCCCCCCCCCC(=O)Nc1ccn([C@@H]2O[C@H](CO)[C@@H](O)[C@@H]2C#N)c(=O)n1 [SAPACITABINE]", "experiment": "area under dose-response curve of surviving fraction (unscaled, Aref=0) (surviving fraction x log10(nM)); higher = more resistant", "conditions": "exposure time: 5 days; dose range 0.5-1000 nM", "procedure,_shortened": "(§1)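 Surviving fractions were fitted by 3-parameter logistic regression in the drc R package to give dose-response survival curves. They came from tumour cell lines treated for five days with eight inhibitor concentrations from 0.5 to 1000 nM and read by CellTiter-Glo luminescence against DMSO-only wells. The area under the curve is the unscaled activity area. It was calculated over log10 dose with Aref = 0.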"}, "[2]": {"compound": "T2, CC[C@@H]1C(=O)N(C)c2cnc(Nc3ccc(C(=O)NC4CCN(C)CC4)cc3OC)nc2N1C1CCCC1 [BI-2536]", "experiment": "area under dose-response curve of surviving fraction (unscaled, Aref=0) (surviving fraction x log10(nM)); higher = more resistant", "conditions": "exposure time: 5 days; dose range 0.5-1000 nM", "procedure,_shortened": "as §1"}, "[3]": {"compound": "Cn1cc(C2=Nc3cc(NC(=O)C(N)C4CCCCC4)cc4c3C2=CNNC4=O)cn1", "experiment": "area under dose-response curve of surviving fraction (unscaled, Aref=0) (surviving fraction x log10(nM)); higher = more resistant", "conditions": "exposure time: 5 days; dose range 0.5-1000 nM", "procedure,_shortened": "as §1"}, "[4]": {"compound": "T3, CN(C)C/C=C/C(=O)Nc1cc2c(Nc3ccc(F)c(Cl)c3)ncnc2cc1O[C@H]1CCOC1 [AFATINIB]", "experiment": "area under dose-response curve of surviving fraction (unscaled, Aref=0) (surviving fraction x log10(nM)); higher = more resistant", "conditions": "exposure time: 5 days; dose range 0.5-1000 nM", "procedure,_shortened": "as §1"}, "[5]": {"compound": "T4, Nc1nc2[nH]cnc2c(=S)[nH]1 [TIOGUANINE]", "experiment": "area under dose-response curve of surviving fraction (unscaled, Aref=0) (surviving fraction x log10(nM)); higher = more resistant", "conditions": "exposure time: 5 days; dose range 0.5-1000 nM", "procedure,_shortened": "as §1"}, "[6]": {"compound": "T5, CC1(C)CC(=O)c2c(C(F)(F)F)nn(-c3ccc(C(N)=O)c(N[C@H]4CC[C@H](OC(=O)CN)CC4)c3)c2C1 [SNX-5422]", "experiment": "area under dose-response curve of surviving fraction (unscaled, Aref=0) (surviving fraction x log10(nM)); higher = more resistant", "conditions": "exposure time: 5 days; dose range 0.5-1000 nM", "procedure,_shortened": "as §1"}, "[7]": {"compound": "T6, CNC(=O)c1ccc(N2C(=S)N(c3ccc(C#N)c(C(F)(F)F)c3)C(=O)C2(C)C)cc1F [MDV3100]", "experiment": "area under dose-response curve of surviving fraction (unscaled, Aref=0) (surviving fraction x log10(nM)); higher = more resistant", "conditions": "exposure time: 5 days; dose range 0.5-1000 nM", "procedure,_shortened": "as §1"}, "[8]": {"compound": "T1, SAPACITABINE", "experiment": "surviving fraction relative to DMSO-only wells; higher = less growth inhibition", "conditions": "exposure time: 5 days", "procedure,_shortened": "(§2)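 After seeding at 250–500 cells per well in 384-well plates and a 24-hour wait, log-phase tumour cell lines were exposed without interruption for five days to inhibitors at 0.5, 1, 5, 10, 50, 100, 500 and 1000 nM. CellTiter-Glo luminescence was recorded after 10 minutes at room temperature. Viability is reported as surviving fraction, the luminescence normalised to the median of DMSO-only wells.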"}, "[9]": {"compound": "T2, BI-2536", "experiment": "surviving fraction relative to DMSO-only wells; higher = less growth inhibition", "conditions": "exposure time: 5 days", "procedure,_shortened": "as §2"}, "[10]": {"compound": "Cn1cc(C2=Nc3cc(NC(=O)C(N)C4CCCCC4)cc4c3C2=CNNC4=O)cn1", "experiment": "surviving fraction relative to DMSO-only wells; higher = less growth inhibition", "conditions": "exposure time: 5 days", "procedure,_shortened": "as §2"}, "[11]": {"compound": "T3, AFATINIB", "experiment": "surviving fraction relative to DMSO-only wells; higher = less growth inhibition", "conditions": "exposure time: 5 days", "procedure,_shortened": "as §2"}, "[12]": {"compound": "C=CC(=O)Nc1cc2c(Nc3ccc(F)c(Cl)c3)ncnc2cc1OCCCN1CCOCC1 [CANERTINIB]", "experiment": "surviving fraction relative to DMSO-only wells; higher = less growth inhibition", "conditions": "exposure time: 5 days", "procedure,_shortened": "as §2"}, "[13]": {"compound": "T4, TIOGUANINE", "experiment": "surviving fraction relative to DMSO-only wells; higher = less growth inhibition", "conditions": "exposure time: 5 days", "procedure,_shortened": "as §2"}, "[14]": {"compound": "T5, SNX-5422", "experiment": "surviving fraction relative to DMSO-only wells; higher = less growth inhibition", "conditions": "exposure time: 5 days", "procedure,_shortened": "as §2"}, "[15]": {"compound": "T6, MDV3100", "experiment": "surviving fraction relative to DMSO-only wells; higher = less growth inhibition", "conditions": "exposure time: 5 days", "procedure,_shortened": "as §2"}},
  "note": "± gives the standard deviation of the averaged measurements.",
  "data": [
    {"test system": "CAL72 BONE", "values": [
      {"measurement": "area under dose-response curve", "setting": "[1]", "result": 2.07},
      {"measurement": "area under dose-response curve", "setting": "[2]", "result": 0.831},
      {"measurement": "area under dose-response curve", "setting": "[3]", "result": 2.58},
      {"measurement": "area under dose-response curve", "setting": "[4]", "result": 3.5},
      {"measurement": "area under dose-response curve", "setting": "[5]", "result": 3.66},
      {"measurement": "area under dose-response curve", "setting": "[6]", "result": 2.02},
      {"measurement": "area under dose-response curve", "setting": "[7]", "result": 3.36},
      {"measurement": "surviving fraction", "setting": "[8]; 0.5 nM", "result": "0.986 ± 0.07"},
      {"measurement": "surviving fraction", "setting": "[8]; 1 nM", "result": "0.951 ± 0.041"},
      {"measurement": "surviving fraction", "setting": "[8]; 5 nM", "result": "0.91 ± 0.058"},
      {"measurement": "surviving fraction", "setting": "[8]; 10 nM", "result": "0.798 ± 0.13"},
      {"measurement": "surviving fraction", "setting": "[8]; 50 nM", "result": "0.559 ± 0.049"},
      {"measurement": "surviving fraction", "setting": "[8]; 100 nM", "result": "0.369 ± 0.12"},
      {"measurement": "surviving fraction", "setting": "[8]; 500 nM", "result": "0.181 ± 0.039"},
      {"measurement": "surviving fraction", "setting": "[8]; 1000 nM", "result": "0.128 ± 0.027"},
      {"measurement": "surviving fraction", "setting": "[9]; 0.5 nM", "result": "1 ± 0.019"},
      {"measurement": "surviving fraction", "setting": "[9]; 1 nM", "result": "0.742 ± 0.12"},
      {"measurement": "surviving fraction", "setting": "[9]; 5 nM", "result": "0.2 ± 0.021"},
      {"measurement": "surviving fraction", "setting": "[9]; 10 nM", "result": "0.147 ± 0.033"},
      {"measurement": "surviving fraction", "setting": "[9]; 50 nM", "result": "0.12 ± 0.026"},
      {"measurement": "surviving fraction", "setting": "[9]; 100 nM", "result": "0.0987 ± 0.015"},
      {"measurement": "surviving fraction", "setting": "[9]; 500 nM", "result": "0.104 ± 0.019"},
      {"measurement": "surviving fraction", "setting": "[9]; 1000 nM", "result": "0.0927 ± 0.009"},
      {"measurement": "surviving fraction", "setting": "[10]; 0.5 nM", "result": "1.04 ± 0.03"},
      {"measurement": "surviving fraction", "setting": "[10]; 1 nM", "result": "1.02 ± 0.038"},
      {"measurement": "surviving fraction", "setting": "[10]; 5 nM", "result": "1.02 ± 0.019"},
      {"measurement": "surviving fraction", "setting": "[10]; 10 nM", "result": "1.02 ± 0.04"},
      {"measurement": "surviving fraction", "setting": "[10]; 50 nM", "result": "0.937 ± 0.052"},
      {"measurement": "surviving fraction", "setting": "[10]; 100 nM", "result": "0.836 ± 0.043"},
      {"measurement": "surviving fraction", "setting": "[10]; 500 nM", "result": "0.111 ± 0.011"},
      {"measurement": "surviving fraction", "setting": "[10]; 1000 nM", "result": "0.147 ± 0.01"},
      {"measurement": "surviving fraction", "setting": "[11]; 0.5 nM", "result": "1.09 ± 0.021"},
      {"measurement": "surviving fraction", "setting": "[11]; 1 nM", "result": "1.02 ± 0.061"},
      {"measurement": "surviving fraction", "setting": "[11]; 5 nM", "result": "1.07 ± 0.018"},
      {"measurement": "surviving fraction", "setting": "[11]; 10 nM", "result": "1.06 ± 0.042"},
      {"measurement": "surviving fraction", "setting": "[11]; 50 nM", "result": "1.11 ± 0.011"},
      {"measurement": "surviving fraction", "setting": "[11]; 100 nM", "result": "1.1 ± 0.036"},
      {"measurement": "surviving fraction", "setting": "[11]; 500 nM", "result": "0.984 ± 0.031"},
      {"measurement": "surviving fraction", "setting": "[11]; 1000 nM", "result": "0.893 ± 0.053"},
      {"measurement": "surviving fraction", "setting": "[12]; 0.5 nM", "result": "0.982 ± 0.056"},
      {"measurement": "surviving fraction", "setting": "[12]; 1 nM", "result": "0.989 ± 0.067"},
      {"measurement": "surviving fraction", "setting": "[12]; 5 nM", "result": "0.979 ± 0.058"},
      {"measurement": "surviving fraction", "setting": "[12]; 10 nM", "result": "0.969 ± 0.052"},
      {"measurement": "surviving fraction", "setting": "[12]; 50 nM", "result": "1.02 ± 0.2"},
      {"measurement": "surviving fraction", "setting": "[12]; 100 nM", "result": "1.11 ± 0.037"},
      {"measurement": "surviving fraction", "setting": "[12]; 500 nM", "result": "1.03 ± 0.1"},
      {"measurement": "surviving fraction", "setting": "[12]; 1000 nM", "result": "1.08 ± 0.053"},
      {"measurement": "surviving fraction", "setting": "[13]; 0.5 nM", "result": "1.08 ± 0.029"},
      {"measurement": "surviving fraction", "setting": "[13]; 1 nM", "result": "1.07 ± 0.027"},
      {"measurement": "surviving fraction", "setting": "[13]; 5 nM", "result": "1.09 ± 0.073"},
      {"measurement": "surviving fraction", "setting": "[13]; 10 nM", "result": "1.1 ± 0.056"},
      {"measurement": "surviving fraction", "setting": "[13]; 50 nM", "result": "1.14 ± 0.034"},
      {"measurement": "surviving fraction", "setting": "[13]; 100 nM", "result": "1.124 ± 0.0085"},
      {"measurement": "surviving fraction", "setting": "[13]; 500 nM", "result": "1.13 ± 0.029"},
      {"measurement": "surviving fraction", "setting": "[13]; 1000 nM", "result": "1.13 ± 0.043"},
      {"measurement": "surviving fraction", "setting": "[14]; 0.5 nM", "result": "1.033 ± 0.0045"},
      {"measurement": "surviving fraction", "setting": "[14]; 1 nM", "result": "1.06 ± 0.022"},
      {"measurement": "surviving fraction", "setting": "[14]; 5 nM", "result": "1.077 ± 0.01"},
      {"measurement": "surviving fraction", "setting": "[14]; 10 nM", "result": "1.08 ± 0.046"},
      {"measurement": "surviving fraction", "setting": "[14]; 50 nM", "result": "0.208 ± 0.027"},
      {"measurement": "surviving fraction", "setting": "[14]; 100 nM", "result": "0.294 ± 0.038"},
      {"measurement": "surviving fraction", "setting": "[14]; 500 nM", "result": "0.0867 ± 0.014"},
      {"measurement": "surviving fraction", "setting": "[14]; 1000 nM", "result": "0.0977 ± 0.0057"},
      {"measurement": "surviving fraction", "setting": "[15]; 0.5 nM", "result": "0.965 ± 0.087"},
      {"measurement": "surviving fraction", "setting": "[15]; 1 nM", "result": "0.992 ± 0.041"},
      {"measurement": "surviving fraction", "setting": "[15]; 5 nM", "result": "1 ± 0.073"},
      {"measurement": "surviving fraction", "setting": "[15]; 10 nM", "result": "1 ± 0.021"},
      {"measurement": "surviving fraction", "setting": "[15]; 50 nM", "result": "1.08 ± 0.076"},
      {"measurement": "surviving fraction", "setting": "[15]; 100 nM", "result": "0.986 ± 0.17"},
      {"measurement": "surviving fraction", "setting": "[15]; 500 nM", "result": "1.05 ± 0.13"},
      {"measurement": "surviving fraction", "setting": "[15]; 1000 nM", "result": "1.02 ± 0.15"}
    ]}
  ]
}
